# Data as given in patent publication EP1970046A1, “Use of purine and purine derivatives for treating hair” (priority 2007, dated 2008).
# Where two headings read alike, the source gives them in different places.
# Tests used:
# Format in all cases: cell-based
# HGF = HGF release from organotypic hair follicle cell cultures (ELISA); details: organotypische Haarfollikelzellkulturen
# Source text: (§1) Hepatocyte Growth Factor (HGF) und Keratinocyte Growth Factor (KGF) sind wichtige Wachstumsfaktoren, die von der dermalen Papille ausgeschüttet werden, um die Proliferation der Haarschaftkeratinozyten, die für die Synthese der Haarkeratine verantwortlich sind, zu steuern. Sie sind außerdem charakteristische Marker für die Anagenphase, in der auch die Keratinsynthese maximal ist. Darüber hinaus ist zu beachten, dass bei der Haaralterung das Proliferationsvermögen der Haarfollikelzellen abnimmt. Die Ausschüttung von HGF sowie KGF kann mit Hilfe von kommerziell erhältlichen ELISA-Kits quantifiziert werden.
# (§2) Dazu werden organotypische Haarfollikelzellkulturn über 72h mit Theophyllin inkubiert und die Konzentration der Wachstumsfaktoren im Medium in beschriebener Weise bestimmt. Tabelle 2: Relative Ausschüttung von HGF und KGF in [%] nach Behandlung des organotypischen Haarfollikelzellkulturen im Vergleich zu unbehandelten Kontrollen.
# hha3 [1] = experiment: cells; details: Keratinocyte, read-out: Haarkeratinexpression hha3 Mittelwert
# Experimental: (§3) Zur Bestimmung des Einflusses von Theophyllin auf die Expression von Haarkeratinen wurde die differentielle Genexpression mittels quantitatitiver RT-PCR bestimmt. Nach Anzucht der Keratinozyten der äusseren Wurzelscheide (ORS-Keratinozyten) wurden diese für 3, 6 oder 24 h mit Theophyllin in Konzentration von 1.10 und 100 µM inkubiert.
# (§4) Zur Durchführung der PCR wird zunächst mit Hilfe des RNeasy Mini Kits der Fa. Qiagen die RNA aus ORS-Keratinozyten isoliert und mittels reverser Transkription in cDNA umgeschrieben. Bei der anschließenden PCR Reaktion, die mit Hilfe genspezifischer Primer für die jeweiligen haarrelevanten Gene durchgeführt wird und die der Amplifikation der gesuchten Genabschnitte dient, wird die Bildung der PCR-Produkte online über ein Fluoreszenzsignal detektiert. Das Fluoreszenzsignal ist dabei proportional zur Menge des gebildeten PCR-Produktes. Je stärker die Expression eines bestimmten Gens Ist, desto größer Ist die Menge an gebildetem PCR-Produkt und um so höher ist das Fluoreszenzsignal. Zur Quantifizierung der Genexpression wird die unbehandelte Kontrolle gleich 1 gesetzt und die Expression der zu bestimmenden Gene darauf bezogen (x-fache Expression). Dabei werden Werte, die größer/gleich der 2fachen Expression oder kleiner/gleich der 0.5fachen Expression der unbehandelten Kontrolle sind als signifikant differentiell exprimiert eingestuft. Werte, die größer/gleich der 1,6fachen Expression oder kieiner/gleich der 0.66fachen Expression der unbehandelten Kontrolle sind als tendenziell differentiell exprimiert eingestuft. Die Ergebnisse sind in Tabelle 3 zusammengefasst. Tabelle 3: Haarkeratinexpression nach Behandlung von ORS-Keratinozyten in Zellkulturen im Vergleich zur unbehandelten Kontrolle.
# hhb6 [2] = experiment: cells; details: Keratinocyte, read-out: Haarkeratinexpression hhb6 Mittelwert
# Experimental: as §3, §4
# hha4 [3] = experiment: cells; details: Keratinocyte, read-out: Haarkeratinexpression hha4 Mittelwert
# Experimental: as §3, §4
# hha6 = experiment: cells; details: Keratinocyte, read-out: Haarkeratinexpression hha6 Mittelwert
# Experimental: as §3, §4
# hha1 = experiment: cells; details: Keratinocyte, read-out: Haarkeratinexpression hha1 Mittelwert
# Experimental: as §3, §4
# KGF [4] = experiment: KGF release from organotypic hair follicle cell cultures (ELISA); details: organotypische Haarfollikelzellkulturen
# Source text: as §1, §2
# hha3 [5] = experiment: cells; details: read-out: Haarkeratinexpression hha3 Mittelwert
# Source text: as §4
# (§5) Die Aktivierung der Keratinsynthese nach Applikation von Theophyllin wurde zusätzlich mit Hilfe organotypischer Haarfollikelzelikulturen untersucht, in denen verschiedene Zellen des Haarfollikels miteinander interagieren können. Die Untersuchungen erfolgten mit dem in Beispiel 3 erläuterten Verfahren der quantitativen Reverse Transkription Polymerase Kettenreaktion. Die Ergebnisse sind in Tabelle 4 zusammengefasst. Tabelle 4: Haarkeratinexpression nach Behandlung mit Theophyllin in organotpischen Haarfollikelzellkulturen im Vergleich zur unbehandelten Kontrolle.
# hhb6 [6] = experiment: cells; details: read-out: Haarkeratinexpression hhb6 Mittelwert
# Source text: as §4, §5
# hha4 [7] = experiment: cells; details: read-out: Haarkeratinexpression hha4 Mittelwert
# Source text: as §4, §5
# KGF [8] = experiment: KGF release from dermal papilla cells (ELISA); details: dermale Papillenzellen
# Source text: Der Keratinozyten Wachstumsfaktor Factor (KGF) Ist ein äußerst wichtiger Regulator des Haars. Bei einer potentiell wachstumsfördernden und das Haar stärkenden Aktivsubstanz kann von einer Steigerung der ins Medium ausgeschütteten Faktoren ausgegangen werden. Die Ausschüttung von KGF kann mit Hilfe von kommerziell erhältlichen ELISA-Kits quantifiziert werden. Dazu wurden die dermalen Papillenzellen über 24 Stunden mit Theophyllin inkubiert und die Konzentration des Wachstumsfaktors im Medium in beschriebener Weise quantifiziert. Tabelle 1: Relative Ausschüttung von KGF in [%] nach Behandlung der dermalen Papillenzellen im Vergleich zur unbehandelten Kontrollen.
smiles,measurement,setting,value
Cn1c(=O)c2[nH]cnc2n(C)c1=O [Theophyllin],activity at 500 µM,"HGF; HGF, 72h, untreated = 100 (14), spread in brackets, read-out: Relative Ausschüttung von HGF Mittelwert",144%
same,Freisetzung des Hepatozyten Wachstumsfaktor (HGF),"HGF; 500 µM, result in words",erhöhte Freisetzung
same,fold induction at 1 µM,hha3 [1]; 3 h,0.86
same,fold induction at 10 µM,hha3 [1]; 3 h,1.47
same,fold induction at 100 µM,hha3 [1]; 3 h,2.47
same,fold induction at 1 µM,hha3 [1]; 6 h,0.8
same,fold induction at 10 µM,hha3 [1]; 6 h,0.87
same,fold induction at 100 µM,hha3 [1]; 6 h,1.25
same,fold induction at 1 µM,hha3 [1]; 24 h,1.2
same,fold induction at 10 µM,hha3 [1]; 24 h,1.41
same,fold induction at 100 µM,hha3 [1]; 24 h,2.75
same,fold induction at 1 µM,hhb6 [2]; 3 h,1.09
same,fold induction at 10 µM,hhb6 [2]; 3 h,1.12
same,fold induction at 100 µM,hhb6 [2]; 3 h,1.78
same,fold induction at 1 µM,hhb6 [2]; 6 h,0.8
same,fold induction at 10 µM,hhb6 [2]; 6 h,0.76
same,fold induction at 100 µM,hhb6 [2]; 6 h,1.23
same,fold induction at 1 µM,hhb6 [2]; 24 h,1.34
same,fold induction at 10 µM,hhb6 [2]; 24 h,1.28
same,fold induction at 100 µM,hhb6 [2]; 24 h,1.98
same,fold induction at 1 µM,hha4 [3]; 3 h,0.83
same,fold induction at 10 µM,hha4 [3]; 3 h,1.4
same,fold induction at 100 µM,hha4 [3]; 3 h,2.41
same,fold induction at 1 µM,hha4 [3]; 6 h,0.81
same,fold induction at 10 µM,hha4 [3]; 6 h,0.88
same,fold induction at 100 µM,hha4 [3]; 6 h,1.31
same,fold induction at 1 µM,hha4 [3]; 24 h,1.27
same,fold induction at 10 µM,hha4 [3]; 24 h,1.48
same,fold induction at 100 µM,hha4 [3]; 24 h,2.65
same,fold induction at 1 µM,hha6; 3 h,0.45
same,fold induction at 10 µM,hha6; 3 h,0.59
same,fold induction at 100 µM,hha6; 3 h,0.28
same,fold induction at 1 µM,hha6; 6 h,1.12
same,fold induction at 10 µM,hha6; 6 h,0.42
same,fold induction at 100 µM,hha6; 6 h,0.57
same,fold induction at 1 µM,hha6; 24 h,3.19
same,fold induction at 10 µM,hha6; 24 h,2.14
same,fold induction at 100 µM,hha6; 24 h,1.61
same,fold induction at 1 µM,hha1; 3 h,0.73
same,fold induction at 10 µM,hha1; 3 h,1.18
same,fold induction at 100 µM,hha1; 3 h,1.38
same,fold induction at 1 µM,hha1; 6 h,0.9
same,fold induction at 10 µM,hha1; 6 h,0.92
same,fold induction at 100 µM,hha1; 6 h,1.22
same,fold induction at 1 µM,hha1; 24 h,1.3
same,fold induction at 10 µM,hha1; 24 h,1.4
same,fold induction at 100 µM,hha1; 24 h,2.49
same,Freisetzung von KGF,"KGF [4]; 500 µM, result in words",tendenziell erhöhten Freisetzung
same,activity at 500 µM,"KGF [4]; 72h, untreated = 100 (35), spread in brackets, read-out: Relative Ausschüttung von KGF Mittelwert",144%
same,fold induction at 10 µM,hha3 [5]; 6 h,0.76
same,fold induction at 100 µM,hha3 [5]; 6 h,0.76
same,fold induction at 10 µM,hha3 [5]; 24 h,2.27
same,fold induction at 100 µM,hha3 [5]; 24 h,3
same,fold induction at 10 µM,hhb6 [6]; 6 h,1.28
same,fold induction at 100 µM,hhb6 [6]; 6 h,2.06
same,fold induction at 10 µM,hhb6 [6]; 24 h,1.81
same,fold induction at 100 µM,hhb6 [6]; 24 h,1.68
same,fold induction at 10 µM,hha4 [7]; 6 h,0.91
same,fold induction at 100 µM,hha4 [7]; 6 h,1.56
same,fold induction at 10 µM,hha4 [7]; 24 h,2.08
same,fold induction at 100 µM,hha4 [7]; 24 h,1.88
same,activity at 1 µM,"KGF [8]; 24 h, 24 Stunden, 1µM, untreated control = 100, read-out: Relative Ausschüttung von KGF Mittelwert",121%
same,activity at 10 µM,"KGF [8]; 24 h, 24 Stunden, 10µM, untreated control = 100, read-out: Relative Ausschüttung von KGF Mittelwert",135%
same,activity at 100 µM,"KGF [8]; 24 h, 24 Stunden, 100µM, untreated control = 100, read-out: Relative Ausschüttung von KGF Mittelwert",161%
same,Freisetzung von KGF,KGF [8]; result in words,signifikant erhöhten Freisetzung
